Data: patent US10111874B2, “Combination therapies for treatment of cancer” (Araxes Pharma LLC, priority 2014, dated 2018)

How the values were obtained:
[1] = tested on: SW1573 cells; test: Western blots of KRAS signaling nodes and cleaved PARP in SW1573 cells; assay type: cell-based
Text: (§1) Western blots were used to analyze downstream KRAS signaling nodes (AKT, ERK, RSK, S6) and a marker of apoptosis (cleaved PARP). […] Taxol (paclitaxel) was used as a positive control.

[2] = tested on: Calu-1 cells; test: Western blots of KRAS signaling nodes and cleaved PARP in Calu-1 cells; assay type: cell-based; details: I-272 30, 100, 300, and 1000 nM, Dasatinib 150 nM
Text: (§2) Western blots were used to analyze downstream KRAS signaling nodes (AKT, ERK, RSK, S6) and a marker of apoptosis (cleaved PARP).

[3] = tested on: mutant cell lines (H358, NCI-H23, SW1463, H1792, Calu-1, SW1573); test: Western blots, KRAS G12C inhibitor with SRC inhibitors in multiple cell lines; assay type: cell-based; details: I-272 1 μM
Text: as §2
As a control, a non-G12C cell line (A549) was subjected to the same single agent and combination treatments. The KRAS G12C inhibitors show no single agent or additive/synergistic effects in this line.

[4] = tested on: mutant cell lines (H358, H1792, MiaPaca2); test: Western blots, KRAS G12C inhibitor with JAK inhibitor momelotinib in multiple cell lines; assay type: cell-based
Method: Western blots were used to analyze downstream KRAS signaling nodes (AKT, ERK, S6), a transcription factor (STAT3), and a marker of apoptosis (cleaved PARP). Treatment of mutant cell lines (H358, H1792, MiaPaca2) or a control cell line (A549) was tested with an exemplary KRAS G12C inhibitor (compound I-272, 0.3 and 1 μM) alone or in combination with momelotinib (JAK inhibitor, 5 μM). […] Specifically, when compound I-272 is used in combination with momelotinib (JAK inhibitor) PARP is detected in H358, H1792, and MiaPaca2.

[5] = biological target: T1, KRAS G12C 1-169, his-tagged protein, GDP-loaded (Homo sapiens, UniProt P01116, G12C); test: Biochemical assay: covalent binding to KRAS G12C analyzed by mass spectrometry; details: compounds 247-342, measured at 30 min; listed as 272
T1 construct: KRAS G12C 1-169, his-tagged protein, GDP-loaded

[6] = tested on: mutant cells (H358, Calu-1, MiaPaca2, NCI-H23, SW1463, H1792); test: Western blots / dot blot arrays of signaling pathways maintained or hyper-activated following KRAS G12C inhibition; assay type: cell-based; details: 48 hours, versus untreated cell lines
Text: FIG. 1 provides western blots for identifying synergistic pathways for targeting in combination with KRAS G12C inhibition. Shown are dot blot arrays for detection of phosphorylated receptor tyrosine kinases (p-RTK) and phosphorylated signaling kinases (ie. p-ERK, or p-AKT) for indicated cell lines treated with indicated K-Ras G12C inhibitor. Notable signaling targets and their respective pathways that are induced or maintained following treatment are summarized for various cell lines.
Western blots were used to analyze downstream KRAS signaling nodes (AKT, ERK, S6, EGFR/HER2, SRC, MET) and a transcription factor (STAT3). […] Sustained or induced pathways were assessed by comparing untreated cell lines with those treated by compound I-272.

[7] = tested on: mutant cell lines (NCI-H23, SW1573); test: Western blots, KRAS G12C inhibitor with ruxolitinib or momelotinib; assay type: cell-based; details: I-272 1 μM
Method: Western blots were used to analyze downstream KRAS signaling nodes (AKT, ERK, S6), transcription factors (STAT3, IκBα), protein marker (TBK1) and a marker of apoptosis (cleaved PARP). Treatment of mutant cell lines (NCI-H23, SW1573) were tested with an exemplary KRAS G12C inhibitor (compound I-272, 1 μM) alone or in combination with one of ruxolitinib (JAK 1/2 inhibitor, 1 and 5 μM) or momelotinib (JAK1/2, TBK1, IKKe inhibitor, 1 and 5 μM). […] Further, there is synergistic p-S6 inhibition in each of the combinations. Synergistic apoptosis strongly occurred when TBK1 and non-canonical NFκB signaling is inhibited.

[8] = tested on: H358 cells (KRAS G12C); test: Western blots of downstream KRAS signaling nodes and apoptosis markers in H358 cells; assay type: cell-based; details: for G1 arrest and induction of apoptosis: H358 cells (FIG. 9, left panel); for apoptosis based on c-caspase 3 levels: H358 cells (FIG. 11); for apoptosis based on cleaved PARP levels: H358 cells, erlotinib 5 μM
Method: FIG. 2 depicts western blot analysis of downstream targets of K-Ras signaling. […] Paclitaxel was used as a positive control. The western blots were probed with antibodies for p-AKT, p-ERK, total ERK, p-RSK, p-S6 and cleaved PARP. Cleaved PARP is indicative of apoptosis. B) A549 cells that express the G12S isoform of K-Ras were used a control for K-Ras G12C inhibitor specificity. A549 cells were treated as in A).
as §2, §1
Western blots were used to analyze downstream KRAS signaling nodes (AKT, ERK, RSK, S6) and a marker of apoptosis (cleaved PARP). […] Caspase activity was measured using a standard caspase activity luminescence assay (Capase-Glo, Promega).

[9] = tested on: H358 cells; test: Flow cytometry, cell cycle progression and apoptosis (sub-diploid cells); assay type: cell-based; details: single agents
Method: B) The average apoptosis response of NCI-H358, NCI-H1792, NCI-H2122, and SW1573 cell lines generated by flow cytometry as described in A).
(§3) Apoptosis was measured via flow cytometry. Gated populations=% of subdiploid apoptotic cells.
as §3
FIG. 7 depicts apoptosis in NCI-H358 cells treated with II-64 (10 μM), SN38 (5 nM), or a combination treatment (II-64+SN38). […] Apoptosis was measured via flow cytometry. Gated populations=% of subdiploid apoptotic cells.
Flow cytometry was used to evaluate KRAS G12C inhibitor combination treatments.
Next, flow cytometry was used to evaluate a KRAS G12C inhibitor in combination with the chemotherapeutic agents paclitaxel or docetaxel.

[10] = tested on: KRAS G12C mutant cells lines (H358, H2122, H2030, H1792, Calu-1, MiaPaca2, and NCI-H23); test: Caspase activity luminescence assay (Capase-Glo) with compound II-64 alone or in combination; assay type: cell-based; details: alone
Method: Caspase activity was measured using a standard caspase activity luminescence assay (Capase-Glo, Promega). Taxol (paclitaxel) was used as a positive control.

[11] = I-272 0.3 and 1 μM, alone, 24 hours

T1 sequence (P01116 1-169 isoform P01116-2 G12C): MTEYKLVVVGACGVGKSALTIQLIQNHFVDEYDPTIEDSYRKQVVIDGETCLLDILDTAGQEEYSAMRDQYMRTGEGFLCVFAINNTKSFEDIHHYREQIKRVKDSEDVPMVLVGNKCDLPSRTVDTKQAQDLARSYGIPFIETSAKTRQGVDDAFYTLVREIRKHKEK

## Cc1nc(NC(=O)N2CCC[C@H]2C(N)=O)sc1-c1ccnc(C(C)(C)C(F)(F)F)c1 [BYL719, Alpelisib]
[1]
  apoptosis based on cleaved PARP levels: does not induce robust apoptosis

## C=CC(=O)N1CCN(c2ncnc3c(F)c(-c4cc(O)cc5ccccc45)c(Cl)cc23)CC1 [Compound I-272, 1-(4-(6-chloro-8-fluoro-7-(3-hydroxynaphthalen-1-yl)quinazolin-4-yl)piperazin-1-yl)prop-2-en-1-one]
[2]; 24 hours
  inhibition of downstream KRAS signaling nodes (Western blot): clear and, at higher concentrations, nearly complete inhibition of p-ERK and p-RSK
[2]
  apoptosis based on cleaved PARP levels: minimal cleaved PARP
[3]; alone, 24 hours
  inhibition of p-ERK: clear and, in some cases (H358, SW1463, Calu-1), nearly complete inhibition of p-ERK
[3]; dasatinib 100 nM, 24 hours
  inhibition of p-S6: inhibition of p-S6 in H358, SW1463, H1792, and Calu-1 cell lines
[3]; dasatinib 100 nM, Saracatinib 2 μM
  apoptosis based on cleaved PARP levels: minimal cleaved PARP
[4]; [11]
  inhibition of S6: some to nearly complete inhibition of S6 (in H358)
  inhibition of p-ANK: some inhibition of p-ANK (in H358)
  inhibition of p-ERK: some and nearly complete inhibition of p-ERK (in H1792 and H358 respectfully)
[4]; I-272 0.3 and 1 μM, momelotinib 5 μM
  induction of apoptosis (cleaved PARP): some induction of apoptosis as observed by the presence of cleaved PARP (in H358 and MiaPaca2)
[4]; I-272 alone, also control cell line A549
  induction of STAT3: induces STAT3 in certain cell lines (slight in H358 and H1792, strong in MiaPaca2 and A549)
[5]
  Binding %: ++++ (++++indicates binding activity greater than 75%)
[6]
  sustained or induced pathways following KRAS G12C inhibition: sustained or induced pathways suggesting targeting with RTK, PI3K, mTOR, SRC, and JAK/STAT inhibitors
[7]; alone, 24 hours
  inhibition of p-ERK: clear and nearly complete inhibition of p-ERK
  inhibition of p-S6 and p-AKT: inhibition of p-S6 and p-AKT in NCI-H23
[7]; ruxolitinib or momelotinib 1 and 5 μM
  apoptosis based on cleaved PARP levels: minimal cleaved PARP

## CS(=O)(=O)N1CCN(Cc2cc3nc(-c4cccc5[nH]ncc45)nc(N4CCOCC4)c3s2)CC1 [GDC0941, 2-(1H-indazol-4-yl)-6-(4-methanesulfonyl-piperazin-1-ylmethyl)-4-morpholin-4-yl-thieno[3,2-d]pyrimidine, reference compound]
[8]
  G1 arrest and induction of apoptosis: G1 arrest with low to modest induction of apoptosis
  apoptosis based on c-caspase 3 levels: does not induce robust apoptosis
[9]
  cell cycle arrest and induction of apoptosis (flow cytometry): G1 arrest with low to modest induction of apoptosis

## C#Cc1cccc(Nc2ncnc3cc(OCCOC)c(OCCOC)cc23)c1 [erlotinib, reference compound]
[10]
  caspase activity: did not induce significant caspase activity
[8]
  G1 arrest and induction of apoptosis: G1 arrest with low to modest induction of apoptosis
  apoptosis based on c-caspase 3 levels: does not induce robust apoptosis
[8]; 24 hours, G12C inhibitors 10 μM, GDC0941 2 μM (FIG. 2)
  apoptosis based on cleaved PARP levels: does not induce robust apoptosis
[8]; I-74 15 μM, PD0325901 100 nM, GDC0941 1 μM
  apoptosis based on cleaved PARP levels: does not induce robust apoptosis
[9]
  cell cycle arrest and induction of apoptosis (flow cytometry): G1 arrest with low to modest induction of apoptosis
